Results taken from article PMC314469, “Protein Interaction Networks by Proteome Peptide Scanning” (PLoS Biology, 2004).

System: Myo5 SH3 domain
Assay: SPOT analysis of cellulose-bound peptides (WISE), Myo5 SH3 domain (Dataset S4)
Type: binding, Saccharomyces cerevisiae
Conditions: for The normalized value in BLU units: Myo5 SH3 domain
[1] = SPOT analysis of cellulose-bound peptides probed with Myo5 SH3 domain, normalized value
[2] = SPOT analysis of cellulose-bound 14-mer yeast proteome peptides, normalized value, mean where the peptide was synthesized more than once
[3] = SPOT analysis of membrane-synthesized peptides probed with Myo5 SH3 domain, normalized value
[4] = SPOT analysis of membrane-bound peptides, normalized value (see methods)

SPRCLPTPILPSMS
The normalized value in BLU units (SPOT analysis, Myo5 SH3) [1]: 192.8 BLU

MAEFRRVPLPPMAE
The normalized value in BLU units [2]: 442.6 BLU

KNLLREIPQVPAFQ
The normalized value in BLU units (SPOT analysis, Myo5 SH3) [3]: 104.1 BLU

LEFPKDYPLSPPKL
The normalized value in BLU units [4]: 134.8 BLU

GFVFFIAPHLPVDL
The normalized value in BLU units [2]: 507.5 BLU

VKKEKKPPKIPKKV
The normalized value in BLU units (SPOT analysis, Myo5 SH3) [3]: 534.4 BLU

PPMAYNRPVYPPPQ
The normalized value in BLU units [2]: 6717.1 BLU

PTVQKFSPHPPTTL
The normalized value in BLU units [4]: 213.4 BLU

CKYNRQHPANPAAA
The normalized value in BLU units [4]: 189.3 BLU

TEIYKLEPREPQVD
The normalized value in BLU units [4]: 29.1 BLU

VKPTKLEPENPQKP
The normalized value in BLU units (SPOT analysis, Myo5 SH3) [3]: 91.3 BLU

QPAQFMPPQDPAAA
The normalized value in BLU units [2]: 133.5 BLU

TAWDMVPPYSPLSE
The normalized value in BLU units [2]: 126.6 BLU

KMSAKNTPKHPVDI
The normalized value in BLU units (SPOT analysis, Myo5 SH3) [3]: 307.2 BLU

VKRPRLNPFLPRDE
The normalized value in BLU units [4]: 1186.3 BLU

SMDSKRKPSPPSQR
The normalized value in BLU units (SPOT analysis, Myo5 SH3) [3]: 509.7 BLU

LKDNRLLPSWPKRG
The normalized value in BLU units (SPOT analysis, Myo5 SH3) [3]: 518.0 BLU

EAIKLGVPKGPLFA
The normalized value in BLU units (SPOT analysis, Myo5 SH3) [1]: 130.4 BLU

PFSSMKEPFIPQSS
The normalized value in BLU units (SPOT analysis, Myo5 SH3) [1]: 410.6 BLU

FVSPRRAPKPPSYP
The normalized value in BLU units [4]: 1581.6 BLU

IEFDLSKPFTPFQQ
The normalized value in BLU units (SPOT analysis, Myo5 SH3) [1]: 134.1 BLU

SLFPLKTPISPGTS
The normalized value in BLU units (SPOT analysis, Myo5 SH3) [1]: 239.2 BLU

VLEAYNVPTPPRLE
The normalized value in BLU units [2]: 57.4 BLU

TEVWRKVPMKPIFE
The normalized value in BLU units (SPOT analysis, Myo5 SH3) [3]: 242.9 BLU

MLNEHGVPVVPSRE
The normalized value in BLU units [2]: 199.3 BLU

GAGGLGCPALPYLA
The normalized value in BLU units (SPOT analysis, Myo5 SH3) [1]: 110.6 BLU

PSAMKLVPSIPPAT
The normalized value in BLU units (SPOT analysis, Myo5 SH3) [3]: 561.3 BLU

NRKQRSIPLSPIVP
The normalized value in BLU units [4]: 490.7 BLU

ILVAYGLPVSPDEK
The normalized value in BLU units (SPOT analysis, Myo5 SH3) [1]: 166.6 BLU

QWSKRIMPYIPGPV
The normalized value in BLU units (SPOT analysis, Myo5 SH3) [3]: 295.5 BLU

PHFAKHSPDSPRTS
The normalized value in BLU units [4]: 236.2 BLU

SAYYLGLPVTPEDM
The normalized value in BLU units (SPOT analysis, Myo5 SH3) [1]: 215.1 BLU

KNIIKYVPWGPPLE
The normalized value in BLU units [2]: 164.4 BLU

NLKTKSHPEVPRLD
The normalized value in BLU units (SPOT analysis, Myo5 SH3) [3]: 362.8 BLU

GWVVYPPPPKPSYN
The normalized value in BLU units (SPOT analysis, Myo5 SH3) [1]: 452.7 BLU

ILHQLGAPSIPENL
The normalized value in BLU units (SPOT analysis, Myo5 SH3) [1]: 174.0 BLU

HFPSRSQPSDPKLQ
The normalized value in BLU units (SPOT analysis, Myo5 SH3) [3]: 257.5 BLU

LWRPRIVPILPYIT
The normalized value in BLU units [2]: 1051.3 BLU

HLLGKEGPSAPNPS
The normalized value in BLU units [4]: 124.5 BLU

GPEFWISPDTPLKF
The normalized value in BLU units (SPOT analysis, Myo5 SH3) [1]: 87.4 BLU

PEHLFNNPQNPMDF
The normalized value in BLU units [2]: 157.1 BLU

AGMAKTKPDVPLSY
The normalized value in BLU units [4]: 157.7 BLU

GQQKRFSPSLPSAV
The normalized value in BLU units [4]: 728.5 BLU

EWEEKLTPAGPLCP
The normalized value in BLU units [4]: 297.2 BLU

KPAVLHYPPIPASA
The normalized value in BLU units (SPOT analysis, Myo5 SH3) [1]: 183.1 BLU

EFDMLLLPFIPSID
The normalized value in BLU units [2]: 249.2 BLU

SWLTMLPPMAPLLS
The normalized value in BLU units (SPOT analysis, Myo5 SH3) [1]: 504.9 BLU

RDDVKRTPFIPESV
The normalized value in BLU units [4]: 171.1 BLU

PPEGFPEPLNPTNF
The normalized value in BLU units (SPOT analysis, Myo5 SH3) [1]: 86.0 BLU

NAIEMALPNDPYPA
The normalized value in BLU units (SPOT analysis, Myo5 SH3) [1]: 87.2 BLU

EPIAHLFPPGPKNP
The normalized value in BLU units (SPOT analysis, Myo5 SH3) [1]: 356.3 BLU

IAVTRSIPRGPDKN
The normalized value in BLU units [4]: 157.9 BLU

VLFMKGTPEFPKCG
The normalized value in BLU units (SPOT analysis, Myo5 SH3) [3]: 212.8 BLU

EFLIKEDPDLPPQG
The normalized value in BLU units [4]: 175.4 BLU

MTQPKKNPMEPKTD
The normalized value in BLU units [2]: 147.2 BLU

LWILYMSPDVPSAS
The normalized value in BLU units (SPOT analysis, Myo5 SH3) [1]: 252.6 BLU

VPSAFTAPPVPTKK
The normalized value in BLU units [2]: 358.2 BLU

MLFSWPYPEAPIEG
The normalized value in BLU units (SPOT analysis, Myo5 SH3) [1]: 126.4 BLU

EEMGMEEPQAPEAF
The normalized value in BLU units (SPOT analysis, Myo5 SH3) [1]: 127.9 BLU

QASMLRRPSLPHID
The normalized value in BLU units (SPOT analysis, Myo5 SH3) [1]: 1102.4 BLU

HLTDLSPPGTPPTM
The normalized value in BLU units (SPOT analysis, Myo5 SH3) [1]: 260.8 BLU

SRYLKDHPNLPTPE
The normalized value in BLU units (SPOT analysis, Myo5 SH3) [3]: 69.2 BLU

QLIGFGNPKNPFAL
The normalized value in BLU units (SPOT analysis, Myo5 SH3) [1]: 46.1 BLU

PKHIRNEPVKPFRN
The normalized value in BLU units (SPOT analysis, Myo5 SH3) [3]: 360.9 BLU

FLSYMSEPKYPSNE
The normalized value in BLU units [2]: 141.6 BLU

TFRDMDLPQHPVIH
The normalized value in BLU units (SPOT analysis, Myo5 SH3) [1]: 188.2 BLU

VLLPLRLPEIPPKG
The normalized value in BLU units [2]: 1072.4 BLU

LLVTKERPRFPEDD
The normalized value in BLU units [4]: 33.7 BLU

TLFRFIVPFNPYFS
The normalized value in BLU units [2]: 881.8 BLU

DPNQLSTPPTPKSA
The normalized value in BLU units [2]: 166.4 BLU

KFTDMLDPEKPNVI
The normalized value in BLU units [2]: 262.4 BLU

ALYHLSNPNVPKLW
The normalized value in BLU units [2]: 195.7 BLU

SLISMETPEQPHQQ
The normalized value in BLU units (SPOT analysis, Myo5 SH3) [1]: 146.8 BLU

LGLHKWLPDIPLFE
The normalized value in BLU units [4]: 167.8 BLU

WENFKEEPGEPLSR
The normalized value in BLU units (SPOT analysis, Myo5 SH3) [3]: 96.8 BLU

KKNPKKSPMGPQGA
The normalized value in BLU units (SPOT analysis, Myo5 SH3) [3]: 1007.5 BLU

PEPTMGSPDAPPLV
The normalized value in BLU units [2]: 106.8 BLU

LEDALHVPTNPEIL
The normalized value in BLU units (SPOT analysis, Myo5 SH3) [1]: 191.1 BLU

RRLKKNLPSLPTPV
The normalized value in BLU units [2]: 823.8 BLU

CWHPKTIPKQPMEI
The normalized value in BLU units (SPOT analysis, Myo5 SH3) [3]: 342.9 BLU

AGPRKYIPRAPAQG
The normalized value in BLU units [4]: 194.7 BLU

IEITHSEPAIPYRE
The normalized value in BLU units [2]: 114.3 BLU

TDTTKVTPIVPVPI
The normalized value in BLU units (SPOT analysis, Myo5 SH3) [3]: 48.0 BLU

EIPSKDHPYDPEKD
The normalized value in BLU units [4]: 51.8 BLU

GETQWRIPYLPLDP
The normalized value in BLU units (SPOT analysis, Myo5 SH3) [1]: 106.2 BLU

INNNKMRPHLPPLS
The normalized value in BLU units [4]: 1004.0 BLU

HLARYIFPPNPVFH
The normalized value in BLU units (SPOT analysis, Myo5 SH3) [1]: 279.4 BLU

NDMAKPLPTPPTAE
The normalized value in BLU units (SPOT analysis, Myo5 SH3) [3]: 113.6 BLU
